Laboratory results reported in patent publication US20170274083A1, “NASAL COMPOSITION HAVING ANTI-VIRAL PROPERTIES” (SOFIBEL S.A.S.-A COMPANY ULTIMATELY OWNED BY CHURCH & …, priority 2014, published 2017).

Tested on: HRV-A16
Test: Anti-viral effect: inhibition of HRV-A16 replication (viral RNA)
Assay type: cell-based, human rhinovirus
Settings: applied 1 h before infection; change in viral RNA; fully differentiated human airway epithelial cells
Protocol: The example 1 composition is tested according to the test of evaluation of the potential activity against HRV-A16 (a rhinovirus responsible for colds) on fully differentiated human airway epithelial cells culture. The compositions are first applied before infection for one hour and the replication is carried out for 4 hours. 3 rinsing steps with the formulations are carried out. The remaining is collected and the RNA is dosed after cell lysis. The same collecting step is carried out 24 hours after and the same dosing step is carried out. The percentage expressed the changes in viral RNA, resulting in the % of inhibition of HRV-A16 replication, leading to the anti-viral efficacy. The tested composition is tested against rupintrivir (a known antiviral compound, providing an almost complete response).

Compound: CCOC(=O)/C=C/[C@H](C[C@@H]1CCNC1=O)NC(=O)[C@@H](CC(=O)[C@@H](NC(=O)c1cc(C)on1)C(C)C)Cc1ccc(F)cc1 [Rupintrivir, rupintrivir]
- Inhibition (%) of HRV-A16 replication: 99.62%
